In brackets after ≈: the same amount, converted by molar mass.
Assays:
Format in all cases: cell-based
S. Aureus UC ® 9213 = test: In vitro minimum inhibitory concentration (MIC) by agar dilution, gram-positive bacteria (Table 1); conditions: Staphylococcus aureus, UC9213
From the text: (§1) The oxazolidinone antibacterial agents of this invention have useful activity against a variety of microorganisms. The in vitro activity of compounds of this invention can be assessed by standard testing procedures such as the determination of minimum inhibitory concentration (MIC) by agar dilution as described in "Methods for Dilution Antimicrobial Susceptibility Tests for Bacteria That Grow Aerobically" (MFT) published January 1983 by the National Committee for Clinical Laboratory Standards, 771 East Lancaster Avenue, Villanova, Pa. 19084, USA. The activity of selected compounds of this invention against Staphylococcus aureus and Streptococcus pneumoniae are shown in Table 1.

S. pneumoniae UC ® 9912 = test: as above; conditions: Streptococcus pneumoniae, UC9912
From the text: as §1

HI 30063 = test: MIC for a gram negative bacterial strain (Table 2); conditions: gram negative bacterial strain HI 30063

CC(=O)NC[C@H]1CN(c2ccc(-c3nnc(CCCC#N)s3)c(F)c2)C(=O)O1 [Example 61, (S)-N-[[3-[4-[5-(3-Cyanopropyl)-1,3,4-thiadiazol-2-yl]-3-fluorophenyl]-2-oxo-5-oxazolidinyl]methyl]acetamide]
MIC (S. Aureus UC ® 9213): 1 µg/mL (≈ 2.48 µM)
MIC (S. pneumoniae UC ® 9912): < 0.125 µg/mL
MIC (HI 30063): 4 µg/mL (≈ 9.91 µM)

CC(=O)NC[C@H]1CN(c2ccc(-c3nnc([C@@H](C)N)s3)c(F)c2)C(=O)O1 [Example 56, [S-(R*,S*)]-N-[[3-[4-[5-(1-Aminoethyl)-1,3,4-thiadiazol-2-yl]-3-fluorophenyl]-2-oxo-5-oxazolidinyl]methyl]acetamide]
MIC (S. Aureus UC ® 9213): 4 µg/mL (≈ 10.5 µM)
MIC (S. pneumoniae UC ® 9912): < 0.125 µg/mL
MIC (HI 30063): 4 µg/mL (≈ 10.5 µM)

CC(=O)NC[C@H]1CN(c2ccc(-c3nnc(CNS(C)(=O)=O)s3)c(F)c2)C(=O)O1 [Example 7, (S)-N-[[3-[3-Fluoro-4-[5-[[(methylsulfonyl)amino]methyl]-1,3,4-thiadiazol-2-yl]phenyl]-2-oxo-5-oxazolidinyl]methyl]acetamide]
MIC (S. Aureus UC ® 9213): 4 µg/mL (≈ 9.02 µM)
MIC (S. pneumoniae UC ® 9912): < 0.125 µg/mL
MIC (HI 30063): 2 µg/mL (≈ 4.51 µM)

CC(=O)CCc1nnc(-c2ccc(N3C[C@H](CNC(C)=O)OC3=O)cc2F)s1 [Example 16, (S)-N-[[3-[3-Fluoro-4-[5-(3-oxobutyl)-1,3,4-thiadiazol-2-yl]phenyl]-2-oxo-5-oxazolidinyl]methyl]acetamide]
MIC (S. Aureus UC ® 9213): 1 µg/mL (≈ 2.46 µM)
MIC (S. pneumoniae UC ® 9912): < 0.125 µg/mL
MIC (HI 30063): 4 µg/mL (≈ 9.84 µM)

CC(=O)NC[C@H]1CN(c2ccc(-c3nnc(CC#N)s3)c(F)c2)C(=O)O1 [Example 13, (S)-N-[[3-[4-[5-(Cyanomethyl)-1,3,4-thiadiazol-2-yl]-3-fluorophenyl]-2-oxo-5-oxazolidinyl]methyl]acetamide]
MIC (S. Aureus UC ® 9213): 2 µg/mL (≈ 5.33 µM)
MIC (S. pneumoniae UC ® 9912): 0.25 µg/mL (≈ 0.666 µM)
MIC (HI 30063): 4 µg/mL (≈ 10.7 µM)

CCC(=S)NC[C@H]1CN(c2ccc(-c3nncs3)c(F)c2)C(=O)O1 [Example 76, (S)-N-[[3-[3-Fluoro-4-(1,3,4-thiadiazol-2-yl)phenyl]-2-oxo-5-oxazolidinyl]methyl]propanethioamide]
MIC (S. Aureus UC ® 9213): 0.25 µg/mL (≈ 0.682 µM)
MIC (S. pneumoniae UC ® 9912): < 0.125 µg/mL
MIC (HI 30063): 1 µg/mL (≈ 2.73 µM)

CC(=O)NC[C@H]1CN(c2ccc(-c3nnc(C#N)s3)c(F)c2)C(=O)O1 [Example 1, (S)-N-[[3-[4-(5-Cyano-1,3,4-thiadiazol-2-yl)-3-fluorophenyl]-2-oxo-5-oxazolidinyl]methyl]acetamide]
MIC (S. Aureus UC ® 9213): 0.5 µg/mL (≈ 1.38 µM)
MIC (S. pneumoniae UC ® 9912): < 0.125 µg/mL
MIC (HI 30063): 2 µg/mL (≈ 5.53 µM)

CC(=O)NC[C@H]1CN(c2ccc(-c3nnc(CC[S+](C)[O-])s3)c(F)c2)C(=O)O1 (stereo partly drawn) [Example 24, (S)-N-[[3-[3-Fluoro-4-[5-[2-(methylsulfinyl)ethyl]-1,3,4-thiadiazol-2-yl]phenyl]-2-oxo-5-oxazolidinyl]methyl]acetamide]
MIC (S. Aureus UC ® 9213): 4 µg/mL (≈ 9.38 µM)
MIC (S. pneumoniae UC ® 9912): 0.25 µg/mL (≈ 0.586 µM)
MIC (HI 30063): 4 µg/mL (≈ 9.38 µM)

CC(=S)NC[C@H]1CN(c2ccc(-c3nncs3)c(F)c2)C(=O)O1 [Example 74, (S)-N-[[3-[3-Fluoro-4-(1,3,4-thiadiazol-2-yl)phenyl]-2-oxo-5-oxazolidinyl]methyl]ethanethioamide]
MIC (S. Aureus UC ® 9213): 0.25 µg/mL (≈ 0.709 µM)
MIC (S. pneumoniae UC ® 9912): < 0.125 µg/mL
MIC (HI 30063): 1 µg/mL (≈ 2.84 µM)

CC(=O)NC[C@H]1CN(c2ccc(-c3n[nH]c(=O)s3)c(F)c2)C(=O)O1 [Example 29, (S)-N-[[3-[4-(4,5-Dihydro-5-oxo-1,3,4-thiadiazol-2-yl)-3-fluorophenyl]-2-oxo-5-oxazolidinyl]methyl]acetamide]
MIC (S. Aureus UC ® 9213): 1 µg/mL (≈ 2.84 µM)
MIC (S. pneumoniae UC ® 9912): 0.25 µg/mL (≈ 0.71 µM)
MIC (HI 30063): 4 µg/mL (≈ 11.4 µM)

CC(=O)NC[C@H]1CN(c2ccc(-c3nnc(CCS(C)(=O)=O)s3)c(F)c2)C(=O)O1 [Example 70, (S)-N-[[3-[3-Fluoro-4-[5-[2-(methylsulfonyl)ethyl]-1,3,4-thiadiazol-2-yl]phenyl]-2-oxo-5-oxazolidinyl]methyl]acetamide]
MIC (S. Aureus UC ® 9213): 4 µg/mL (≈ 9.04 µM)
MIC (S. pneumoniae UC ® 9912): < 0.5 µg/mL
MIC (HI 30063): 4 µg/mL (≈ 9.04 µM)

CC(=O)NC[C@H]1CN(c2ccc(-c3nnc(CCC(C)=NO)s3)c(F)c2)C(=O)O1 [Example 63, (S)-N-[[3-[3-Fluoro-4-[5-[3-(hydroxyimino)butyl]-1,3,4-thiadiazol-2-yl]phenyl]-2-oxo-5-oxazolidinyl]methyl]acetamide]
MIC (S. Aureus UC ® 9213): 2 µg/mL (≈ 4.75 µM)
MIC (S. pneumoniae UC ® 9912): < 0.125 µg/mL
MIC (HI 30063): 4 µg/mL (≈ 9.49 µM)

From patent US5977373A, “Thiadiazolyl and oxadiazolyl phenyl oxazolidinone antibacterial agents” (Pharmacia & Upjohn Company, priority 1998, dated 1999)
